Drawing on patent publication US10745360B2, “Quinoxaline compounds, method for preparing the same and use thereof” (Development Center for Biotechnology, priority 2014, dated 2020), this text covers IC50 for eight molecules.

One experiment concerns the target T1, B-Raf kinase (Homo sapiens, UniProt P15056).
T1 construct: purchased Upstate Biotechnology
As to the kind of experiment: B-Raf kinase assay ([33P] incorporation into MEK1 K97R). Type of experiment: biochemical. The settings on record: recombinant B-Raf, 8 μM ATP, 30 min, 30° C.; read-out: IC50 ranking against B-Raf kinase. The method, then:
Inhibition of kinase activity by a test compound disclosed herein was estimated by quantifying the amount of [^33P] incorporation of a substrate in the presence of the test compound. Standard assay conditions were 5 ng of recombinant B-Raf kinase (Upstate Biotechnology) with 500 ng MEK1(Map-erk kinase; K97R) in the assay buffer (8 μM ATP, 0.5 μCi [^33P]ATP (specific activity 3000 Ci/mmol, PerkinElmer), 50 mM Tris/HCl (pH 7.5), and 1 mM EGTA, 1 mM Na3VO4, 1% 2-mercaptoethanol, 0.1% Brij 35, and 0.2 mg/ml BSA) in a final volume of 25 μL. Reactions were incubated at 30° C. for 30 min and stopped by adding 3% phosphoric acid, harvested onto a 96-well GF/B UniFilter (PerkinElmer) using a unifilter harvester (PerkinElmer), and counted with a TopCount microplate scintillation counter (PerkinElmer). The IC50 values of inhibitors were determined after carrying out assays at 3-fold serially diluted concentrations of each compound in duplication. The results were analyzed using linear regression software (GraphPad Prism 4; GraphPad Software Inc.).

Another experiment has as its target T2, C-Raf kinase (Homo sapiens, UniProt P04049).
T2 construct: purchased Upstate Biotechnology
In words: C-Raf kinase assay ([33P] incorporation into MEK1 K97R). It counts as biochemical. To be noted: recombinant C-Raf, 8 μM ATP, 30 min, 30° C.; read-out: IC50 ranking against C-Raf kinase. Here is the method:
(§1) Inhibition of kinase activity by a test compound disclosed herein was estimated by quantifying the amount of [^33P] incorporation of a substrate in the presence of the test compound. Standard assay conditions were 2 ng of recombinant C-Raf kinase (Upstate Biotechnology) with 500 ng MEK1(K97R) in assay buffer (8 μM ATP, 0.5 μCi [^33P]ATP (specific activity 3000 Ci/mmol, PerkinElmer), 50 mM Tris/HCl (pH 7.5), and 1 mM EGTA, 1 mM Na3VO4, 1% 2-mercaptoethanol, 0.1% Brij 35, and 0.2 mg/ml BSA), and the test compound (diluted with 4% DMSO) or DMSO alone (as a control) in a final volume of 25 μL. Reactions were incubated at 30° C. for 30 min and stopped by adding 3% phosphoric acid, harvested onto a 96-well GF/B UniFilter (PerkinElmer) using a unifilter harvester (PerkinElmer), and counted with a TopCount microplate scintillation counter (PerkinElmer). The IC50 values of inhibitors were determined after carrying out assays at 3-fold serially diluted concentrations of each compound in duplication. The results were analyzed using linear regression software (GraphPad Prism 4; GraphPad Software Inc.).

In experiment [1] the test system is B-Raf^V600E mutant COLO205 colon cancer cell. As to the kind of experiment: Cell proliferation assay (CELLTITER 96), COLO205. Type of experiment: cell-based. To be noted: Homo sapiens, COLO 205; COLO205, 72 hours; read-out: Cytotoxicity (IC50 Ranking) COLO205 (B-Raf^V600E). Here is the method:
(§2) Inhibition of cell growth by compounds was measured using CELLTITER 96® assay. The cytotoxicity of compounds was evaluated in B-Raf^V600E mutant A375 melanoma cell, B-Raf^V600E mutant COLO205 colon cancer cell, and SK-MEL-2 melanoma cell with wild type B-Raf (B-Raf^wt) and NRASQ^Q61R mutation. A375 and COLO205 cell line were cultured in DMEM containing 10% FCS and incubated at 37° C. in 5% CO2 atmosphere. SK-MEL-2 cell line was cultured in MEM containing 10% FCS and incubated at 37° C. in 5% CO2 atmosphere. A375, COLO205 and SK-MEL-2 cell were seeded into 96-well plates at 2000, 2000, and 4000 cells/well, respectively, and allowed to adhere for overnight. Then, these seeded cells were treated with increasing concentrations of the test compounds and incubated for another 72 hours. At the end of the incubation, CELLTITER 96® Aqueous One Solution Reagent (Promega) was added and incubated for 4 hours. Cell viability was determined by measuring absorbance at 490 nm using EMAX® microplate reader (Molecular Devices).
(§3) The 50% inhibitory concentration (IC50) value was calculated by plotting the percentage of growth inhibition against the concentration of compound, using GraphPad Prism5 software for curve fitting.

Another experiment concerns the target T3, B-Raf^V600E kinase (Homo sapiens, UniProt P15056, V600E).
T3 construct: purchased Upstate Biotechnology
In words: B-Raf V600E kinase assay ([33P] incorporation into MEK1 K97R). Type of experiment: biochemical. The settings on record: recombinant B-Raf^V600E, 8 μM ATP, 30 min, 30° C.; read-out: IC50 ranking against B-Raf^V600E kinase. Here is the method: as §1, with “were 5” for “were 2”, “recombinant B-Raf^V600E” for “recombinant C-Raf”, “ng MEK1 (K97R)” for “ng MEK1(K97R)”

Experiment [2] has as its system B-Raf^V600E mutant A375 melanoma cell. In words: Cell proliferation assay (CELLTITER 96), A375. Type of experiment: cell-based. The settings on record: Homo sapiens, A-375; A375, 72 hours; read-out: Cytotoxicity (IC50 Ranking) A375 (B-Raf^V600E). Here is the method: as §2, §3
Experiment [3] deals with SK-MEL-2 melanoma cell with wild type B-Raf (B-Raf^wt) and NRAS^Q61R mutation. As to the kind of experiment: Cell proliferation assay (CELLTITER 96), SK-MEL-2. It counts as cell-based. The settings on record: Homo sapiens; SK-MEL-2, 72 hours; given as bound; read-out: Cytotoxicity (IC50 Ranking) SK-MEL-2 (NRAS^Q61R, B-Raf^wt). The method, then: as §2, §3

pIC50: −log10 of the molar value.

T3 sequence (P15056 whole entry V600E): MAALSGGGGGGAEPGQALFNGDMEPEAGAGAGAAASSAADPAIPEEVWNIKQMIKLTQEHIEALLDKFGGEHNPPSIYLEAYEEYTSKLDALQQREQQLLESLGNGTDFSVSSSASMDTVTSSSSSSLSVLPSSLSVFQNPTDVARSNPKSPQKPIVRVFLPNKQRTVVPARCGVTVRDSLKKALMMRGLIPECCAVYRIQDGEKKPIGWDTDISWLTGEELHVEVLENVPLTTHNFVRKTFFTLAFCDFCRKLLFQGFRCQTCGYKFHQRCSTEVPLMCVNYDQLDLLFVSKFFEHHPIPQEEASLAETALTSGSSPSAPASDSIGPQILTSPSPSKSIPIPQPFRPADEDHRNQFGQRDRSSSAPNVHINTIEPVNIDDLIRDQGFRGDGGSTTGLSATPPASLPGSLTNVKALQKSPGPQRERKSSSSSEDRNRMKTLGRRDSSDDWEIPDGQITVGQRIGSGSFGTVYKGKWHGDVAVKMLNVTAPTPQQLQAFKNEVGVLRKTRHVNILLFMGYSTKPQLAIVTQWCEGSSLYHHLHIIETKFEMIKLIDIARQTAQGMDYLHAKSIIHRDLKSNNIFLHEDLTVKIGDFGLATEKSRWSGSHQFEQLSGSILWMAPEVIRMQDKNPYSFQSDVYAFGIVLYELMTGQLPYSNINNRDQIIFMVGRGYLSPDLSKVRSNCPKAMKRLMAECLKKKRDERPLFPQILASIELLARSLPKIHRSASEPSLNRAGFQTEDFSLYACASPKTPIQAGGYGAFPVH
T2 sequence (P04049 whole entry): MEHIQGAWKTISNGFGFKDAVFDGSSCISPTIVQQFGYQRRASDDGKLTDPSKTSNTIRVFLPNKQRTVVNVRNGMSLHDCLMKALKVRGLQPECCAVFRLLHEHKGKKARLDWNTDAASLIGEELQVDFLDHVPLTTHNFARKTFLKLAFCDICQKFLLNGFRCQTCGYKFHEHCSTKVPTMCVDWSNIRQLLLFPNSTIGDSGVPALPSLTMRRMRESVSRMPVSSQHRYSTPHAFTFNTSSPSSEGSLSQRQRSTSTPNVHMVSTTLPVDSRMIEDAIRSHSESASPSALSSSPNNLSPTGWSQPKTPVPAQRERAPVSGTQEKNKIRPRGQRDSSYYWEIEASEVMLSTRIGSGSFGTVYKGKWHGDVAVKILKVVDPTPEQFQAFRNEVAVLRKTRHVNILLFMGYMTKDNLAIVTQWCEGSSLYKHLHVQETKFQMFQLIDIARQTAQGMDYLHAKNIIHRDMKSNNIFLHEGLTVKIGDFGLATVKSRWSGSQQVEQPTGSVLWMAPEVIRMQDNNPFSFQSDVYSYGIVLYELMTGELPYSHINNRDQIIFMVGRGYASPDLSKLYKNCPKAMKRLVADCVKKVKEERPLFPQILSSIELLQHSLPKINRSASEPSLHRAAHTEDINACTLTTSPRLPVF
T1 sequence (P15056 whole entry): as the sequence (P15056 whole entry V600E) above, with E600V counted along it

As usually defined, the pIC50 is −log10 of the IC50, conventionally taken in molar units. Regarding `CCCS(=O)(=O)Nc1c(F)ccc(Nc2ccc3ncc(OC)nc3c2C#N)c1F` [compound 21, N-(3-(5-cyano-3-methoxyquinoxalin-6-ylamino)-2,6-difluorophenyl)propane-1-sulfonamide], the pIC50 at B-Raf kinase was above 6.52; at C-Raf kinase, above 6.52; in experiment [1], above 6.52; on B-Raf^V600E kinase it was above 6.52; in experiment [2], above 6.52; in experiment [3], below 5.00.

In the case of `CCCS(=O)(=O)Nc1ccc(F)c(Nc2ccc3ncc(OC)nc3c2C(=O)O)c1F` [compound 30, 6-(2,6-difluoro-3-(propylsulfonamido)phenylamino)-3-methoxyquinoxaline-5-carboxylic acid], the pIC50 on B-Raf kinase is 6.00 to 6.52; on C-Raf kinase it was 6.00 to 6.52; in experiment [1] it was 5.00 to 6.00; on B-Raf^V600E kinase it was 6.00 to 6.52; in experiment [2], 5.00 to 6.00; in experiment [3] it was below 5.00.

As for `CCCS(=O)(=O)Nc1cccc(Nc2ccc3ncc(N4CCOCC4)nc3c2C#N)c1C` [compound 38, N-(3-(5-cyano-3-morpholinoquinoxalin-6-ylamino)-2-methylphenyl)propane-1-sulfonamide], the pIC50 is above 6.52 at B-Raf kinase; above 6.52 at C-Raf kinase; above 6.52 in experiment [1]; above 6.52 on B-Raf^V600E kinase; above 6.52 in experiment [2]; below 5.00 in experiment [3].

On to `CN(C)c1cnc2ccc(Nc3cc(NS(=O)(=O)c4ccccc4)ccc3F)c(C#N)c2n1` [compound 37, N-(3-(5-cyano-3-(dimethylamino)quinoxalin-6-ylamino)-4-fluorophenyl)benzenesulfonamide], for which the pIC50 on B-Raf kinase is above 6.52; on C-Raf kinase, above 6.52; in experiment [1] it was 5.00 to 6.00; at B-Raf^V600E kinase it was above 6.52; in experiment [2], 5.00 to 6.00; in experiment [3] it was below 5.00.

As for `CCCS(=O)(=O)Nc1ccc(F)c(Nc2ccc3ncc(OC)nc3c2C#N)c1F` [compound 10, N1-{3-[(5-cyano-3-methoxy-6-quinoxalinyl)amino]-2,4-difluorophenyl}-1-propanesulfonamide], the pIC50 on B-Raf kinase was above 6.52; on C-Raf kinase, above 6.52; in experiment [1], above 6.52; at B-Raf^V600E kinase, above 6.52; in experiment [2], above 6.52; in experiment [3] it was below 5.00.

In the case of `COc1cnc2ccc(Nc3c(F)ccc(NS(=O)(=O)CCCF)c3F)c([N+](=O)[O-])c2n1` [compound 5, N1-{2,4-difluoro-3-[(3-methoxy-5-nitro-6-quinoxalinyl)amino]phenyl}-3-fluoro-1-propanesulfonamide], the pIC50 is above 6.52 on B-Raf kinase; above 6.52 on C-Raf kinase; above 6.52 in experiment [1]; above 6.52 at B-Raf^V600E kinase; above 6.52 in experiment [2]; below 5.00 in experiment [3].

As for `CCCS(=O)(=O)Nc1ccc(F)c(Nc2ccc3ncc(OC)nc3c2C#N)c1Cl` [compound 46, N-(2-chloro-3-(5-cyano-3-methoxyquinoxalin-6-ylamino)-4-fluorophenyl)propane-1-sulfonamide], the pIC50 at B-Raf kinase was above 6.52; at C-Raf kinase, above 6.52; in experiment [1], above 6.52; at B-Raf^V600E kinase, above 6.52; in experiment [2], above 6.52; in experiment [3] it was below 5.00.

Take `CCCS(=O)(=O)Nc1ccc(F)c(Nc2ccc3ncc(OCC)nc3c2C#N)c1` [compound 36, N-(3-(5-cyano-3-ethoxyquinoxalin-6-ylamino)-4-fluorophenyl)propane-1-sulfonamide]: the pIC50 at B-Raf kinase was above 6.52; on C-Raf kinase, above 6.52; in experiment [1], above 6.52; on B-Raf^V600E kinase it was above 6.52; in experiment [2], above 6.52; in experiment [3], below 5.00.
